Literature values as cited in US20160101079A1 (priority 2014, published 2016).

Experiments:
[1] = tested on: glycoprotein shedding (Ebola virus GP; TACE)
rotaviruses = conditions: 10 mM
[2] = tested on: Human Foreskin (HF) cells infected with HSV-2-strain G; conditions: 3 to 1.5 mM

CNC(=O)[C@H](Cc1c[nH]c2ccccc12)NC(=O)[C@@H](CC(=O)NO)CC(C)C [GM6001]
concentration at which inhibition of GP shedding was observed [1]: 5 mM

O=C(O)CN(CCN(CC(=O)O)CC(=O)O)CC(=O)O [EDTA, ethylenediaminetetraacetic acid]
effect on rotavirus particles (rotaviruses): single-shelled, double-layered, non-infectious viral particles

CNC(=O)[C@@H](NC(=O)[C@H](CC(C)C)[C@H](O)C(=O)NO)C(C)(C)C [BB2516]
concentration at which inhibition of GP shedding was observed [1]: 0.5 mM

O=C(O)c1ccccn1 [picolinic acid]
effect on HSV-2 infected HF cells [2]: cause apoptosis of HF infected cells

COc1ccc(S(=O)(=O)N2Cc3ccccc3C[C@@H]2C(=O)NO)cc1 [MMP-8 inhibitor I]
concentration at which inhibition of GP shedding was observed [1]: 5 mM
